The source of these data is patent publication US10519114B2, “Peptidomimetics and methods of using the same” (The Regents of the University of Michigan, priority 2016, dated 2019).

Each structure is given as a SMILES string.

T1 sequence (P33535 whole entry): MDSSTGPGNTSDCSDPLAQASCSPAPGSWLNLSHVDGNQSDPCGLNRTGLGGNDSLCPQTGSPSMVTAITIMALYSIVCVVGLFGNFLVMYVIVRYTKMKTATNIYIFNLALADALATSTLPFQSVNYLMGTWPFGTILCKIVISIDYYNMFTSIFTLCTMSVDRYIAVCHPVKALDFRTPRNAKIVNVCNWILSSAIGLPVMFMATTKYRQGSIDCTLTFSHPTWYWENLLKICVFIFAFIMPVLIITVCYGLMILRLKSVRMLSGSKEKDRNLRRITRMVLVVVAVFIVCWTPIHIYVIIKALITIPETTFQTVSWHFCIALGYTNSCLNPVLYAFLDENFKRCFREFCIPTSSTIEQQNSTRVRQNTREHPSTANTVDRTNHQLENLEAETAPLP

One assay concerns the target T1, rat μ (C6-MOR) opioid receptor (Rattus norvegicus, UniProt P33535).
T1 construct: expressed in transfected cells
The assay can be described thus: Radioligand binding assay, [3H]diprenorphine displacement, MOR. The conditions noted are these: displacement of 0.2 nM [3H]diprenorphine, C6-MOR membranes; mean ± standard error. Put shortly: (§1)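 Membranes (20 μg protein) from C6 cells expressing rat μ or δ, or CHO cells expressing human κ receptor, incubated 1 h at room temperature with 0.2 nM [3H]diprenorphine and test peptide in 50 mM Tris-HCl pH 7.4. Filtration, scintillation counting; nonspecific binding with 10 μM naloxone; Ki by logistic nonlinear regression.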
A word on the Ki: it is a dissociation constant, usually derived from enzyme kinetics or from competition with a known ligand. Higher therefore signals a looser hold on the target. `CCCCCCc1ccc2c(c1)[C@H](NC(=O)[C@@H](N)Cc1c(C)cc(O)cc1C)CCN2` [Compound 1011] registered a Ki of 0.13 ± 0.02 nM.

Turning to `CC(=O)N1CC[C@@H](NC(=O)[C@@H](N)Cc2c(C)cc(O)cc2C)c2cc(-c3ccccc3)ccc21` [Compound 1067], the Ki was found to be 0.88 ± 0.4 nM.

`Cc1cc(O)cc(C)c1C[C@H](N)C(=O)N[C@@H]1CCCc2ccccc21` [Compound 1113] had an inhibitory constant (Ki) of 25.6 ± 10.9 nM.

The molecule `Cc1cc(O)cc(C)c1C[C@H](N)C(=O)N(C)[C@H]1CCNc2ccc(Cc3ccccc3)cc21` [Compound 1002] had a Ki of 0.8 ± 0.04 nM.

For `CCCCCCc1ccc2c(c1)[C@@H](NC(=O)[C@@H](N)Cc1c(C)cc(O)cc1C)CCN2` [Compound 1012], the Ki was found to be 297 ± 72 nM.

In the next assay the target is T2, rat δ (C6-DOR) opioid receptor (Rattus norvegicus, UniProt P33533).
T2 construct: expressed in transfected cells
T2 sequence (P33533 whole entry): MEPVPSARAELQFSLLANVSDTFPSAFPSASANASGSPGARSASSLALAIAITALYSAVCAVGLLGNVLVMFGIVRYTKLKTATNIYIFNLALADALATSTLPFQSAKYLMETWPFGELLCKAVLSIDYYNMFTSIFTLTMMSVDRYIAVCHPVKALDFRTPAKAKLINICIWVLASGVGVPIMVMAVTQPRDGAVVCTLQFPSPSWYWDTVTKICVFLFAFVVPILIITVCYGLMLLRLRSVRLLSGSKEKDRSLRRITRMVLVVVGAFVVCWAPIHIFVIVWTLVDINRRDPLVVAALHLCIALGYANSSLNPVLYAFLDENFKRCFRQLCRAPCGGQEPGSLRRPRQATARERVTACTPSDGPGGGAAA
The assay can be described thus: Radioligand binding assay, [3H]diprenorphine displacement, DOR. The conditions noted are these: displacement of 0.2 nM [3H]diprenorphine, C6-DOR membranes; mean ± standard error. Put shortly: as §1
In the case of `CCCCCCc1ccc2c(c1)[C@H](NC(=O)[C@@H](N)Cc1c(C)cc(O)cc1C)CCN2` [Compound 1011], affinity was put at a Ki of 5.89 ± 0.76 nM.

With `CC(=O)N1CC[C@@H](NC(=O)[C@@H](N)Cc2c(C)cc(O)cc2C)c2cc(-c3ccccc3)ccc21` [Compound 1067], the inhibition constant Ki turned out to be 1.32 ± 0.37 nM.

Take `Cc1cc(O)cc(C)c1C[C@H](N)C(=O)N[C@@H]1CCCc2ccccc21` [Compound 1113]: the Ki was determined as 640 ± 218 nM.

In turn, `Cc1cc(O)cc(C)c1C[C@H](N)C(=O)N(C)[C@H]1CCNc2ccc(Cc3ccccc3)cc21` [Compound 1002] returned a Ki of 8.5 ± 0.2 nM.

Turning to `CCCCCCc1ccc2c(c1)[C@@H](NC(=O)[C@@H](N)Cc1c(C)cc(O)cc1C)CCN2` [Compound 1012], affinity was put at a Ki of 1240 ± 438 nM.

Another assay deals with T3, human κ (CHO-KOR) opioid receptor (Homo sapiens, UniProt P41145).
T3 construct: expressed in transfected cells
T3 sequence (P41145 whole entry): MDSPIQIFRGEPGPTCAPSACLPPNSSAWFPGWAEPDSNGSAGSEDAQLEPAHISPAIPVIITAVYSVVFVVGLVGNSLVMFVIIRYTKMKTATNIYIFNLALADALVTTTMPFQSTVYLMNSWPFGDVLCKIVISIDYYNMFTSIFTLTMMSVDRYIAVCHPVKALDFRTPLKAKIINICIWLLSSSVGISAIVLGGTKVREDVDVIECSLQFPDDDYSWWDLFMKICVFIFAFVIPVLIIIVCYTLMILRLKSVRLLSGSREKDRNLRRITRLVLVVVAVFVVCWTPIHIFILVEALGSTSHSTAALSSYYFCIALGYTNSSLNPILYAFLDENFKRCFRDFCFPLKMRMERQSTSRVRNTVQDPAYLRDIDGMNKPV
The assay can be described thus: Radioligand binding assay, [3H]diprenorphine displacement, KOR. The note with it: displacement of 0.2 nM [3H]diprenorphine, CHO-KOR membranes; mean ± standard error. The procedure, abridged:
as §1
`CCCCCCc1ccc2c(c1)[C@H](NC(=O)[C@@H](N)Cc1c(C)cc(O)cc1C)CCN2` [Compound 1011] showed a Ki of 15.1 ± 5.7 nM.

As to `CC(=O)N1CC[C@@H](NC(=O)[C@@H](N)Cc2c(C)cc(O)cc2C)c2cc(-c3ccccc3)ccc21` [Compound 1067], the inhibition constant (Ki) amounted to 35.8 ± 16.8 nM.

In turn, `Cc1cc(O)cc(C)c1C[C@H](N)C(=O)N[C@@H]1CCCc2ccccc21` [Compound 1113] displayed a Ki of 2060 ± 582 nM.

`Cc1cc(O)cc(C)c1C[C@H](N)C(=O)N(C)[C@H]1CCNc2ccc(Cc3ccccc3)cc21` [Compound 1002]: the affinity, expressed as Ki, was 4.1 ± 0.4 nM.

With `CCCCCCc1ccc2c(c1)[C@@H](NC(=O)[C@@H](N)Cc1c(C)cc(O)cc1C)CCN2` [Compound 1012], the Ki was found to be 3900 nM.

Another assay deals with T1, rat μ (C6-MOR) opioid receptor. Briefly: Stimulation of [35S]GTPγS binding, MOR. The class given is biochemical. The conditions noted are these: [35S]GTPγS binding, C6-MOR membranes; mean ± standard error. The procedure, abridged: (§2)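 Peptide-stimulated [35S]GTPγS (0.1 nM) binding, with 30 μM GDP, 5 mM MgCl2 and 100 mM NaCl at pH 7.4, was measured over 1 h at room temperature. Membranes came from rat MOR/DOR C6 or human KOR CHO cells. Filter-retained counts were expressed against 10 μM DAMGO, DPDPE or U69,593 respectively; maxima were fitted nonlinearly.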
The term EC50 denotes the concentration giving half of the maximal effect. Read a low EC50 as a more potent agent. `CCCCCCc1ccc2c(c1)[C@H](NC(=O)[C@@H](N)Cc1c(C)cc(O)cc1C)CCN2` [Compound 1011]: the EC50 turned out to be 2.41 ± 0.81 nM.

In the case of `CC(=O)N1CC[C@@H](NC(=O)[C@@H](N)Cc2c(C)cc(O)cc2C)c2cc(-c3ccccc3)ccc21` [Compound 1067], the response was half-maximal at 5.64 ± 0.35 nM (EC50).

In turn, `Cc1cc(O)cc(C)c1C[C@H](N)C(=O)N(C)[C@H]1CCNc2ccc(Cc3ccccc3)cc21` [Compound 1002] gave an EC50 of 0.463 ± 0.1 nM.

Consider `CCCCCCc1ccc2c(c1)[C@@H](NC(=O)[C@@H](N)Cc1c(C)cc(O)cc1C)CCN2` [Compound 1012], for which the EC50 is more than 1000 nM.

Still in this assay, the particulars now being: [35S]GTPγS maximal stimulation compared with 10 μM standard DAMGO.
Broadly, the Emax is the greatest response seen or fitted, relative to the assay's reference. As to `CCCCCCc1ccc2c(c1)[C@H](NC(=O)[C@@H](N)Cc1c(C)cc(O)cc1C)CCN2` [Compound 1011], the Emax was determined as 35.9 ± 5.28%.

As to `CC(=O)N1CC[C@@H](NC(=O)[C@@H](N)Cc2c(C)cc(O)cc2C)c2cc(-c3ccccc3)ccc21` [Compound 1067], the Emax turned out to be 51.3 ± 8.48%.

Take `Cc1cc(O)cc(C)c1C[C@H](N)C(=O)N[C@@H]1CCCc2ccccc21` [Compound 1113]: the Emax worked out at 3.44 ± 2.09%.

As for `Cc1cc(O)cc(C)c1C[C@H](N)C(=O)N(C)[C@H]1CCNc2ccc(Cc3ccccc3)cc21` [Compound 1002], the Emax turned out to be 65.6 ± 4.4%.

`CCCCCCc1ccc2c(c1)[C@@H](NC(=O)[C@@H](N)Cc1c(C)cc(O)cc1C)CCN2` [Compound 1012]: the Emax came to 18%.

Another assay has as its target T2, rat δ (C6-DOR) opioid receptor. Briefly: Stimulation of [35S]GTPγS binding, DOR. The class given is biochemical. The note with it: [35S]GTPγS binding, C6-DOR membranes; mean ± standard error. Put shortly: as §2
(GTPγS is a poorly hydrolysed GTP analogue; its binding reports G protein activation.)
As to `CCCCCCc1ccc2c(c1)[C@H](NC(=O)[C@@H](N)Cc1c(C)cc(O)cc1C)CCN2` [Compound 1011], the EC50 worked out at 1.7 nM.

Consider `CC(=O)N1CC[C@@H](NC(=O)[C@@H](N)Cc2c(C)cc(O)cc2C)c2cc(-c3ccccc3)ccc21` [Compound 1067], for which the midpoint of the response, the EC50, lay at 1520 ± 889 nM.

The molecule `CCCCCCc1ccc2c(c1)[C@@H](NC(=O)[C@@H](N)Cc1c(C)cc(O)cc1C)CCN2` [Compound 1012] displayed an EC50 of more than 10000 nM.

Still in this assay, the particulars now being: [35S]GTPγS maximal stimulation compared with 10 μM standard DPDPE.
For `CCCCCCc1ccc2c(c1)[C@H](NC(=O)[C@@H](N)Cc1c(C)cc(O)cc1C)CCN2` [Compound 1011], the Emax is 2.5 ± 2.5%.

On to `CC(=O)N1CC[C@@H](NC(=O)[C@@H](N)Cc2c(C)cc(O)cc2C)c2cc(-c3ccccc3)ccc21` [Compound 1067], for which the Emax came to 37.4 ± 6.31%.

With `Cc1cc(O)cc(C)c1C[C@H](N)C(=O)N[C@@H]1CCCc2ccccc21` [Compound 1113], the Emax is -0.76 ± 0.62%.

With `Cc1cc(O)cc(C)c1C[C@H](N)C(=O)N(C)[C@H]1CCNc2ccc(Cc3ccccc3)cc21` [Compound 1002], the Emax amounted to 2.2 ± 2.2%.

In the case of `CCCCCCc1ccc2c(c1)[C@@H](NC(=O)[C@@H](N)Cc1c(C)cc(O)cc1C)CCN2` [Compound 1012], the Emax was determined as 22%.

The target in a further assay is T3, human κ (CHO-KOR) opioid receptor. The assay can be described thus: Stimulation of [35S]GTPγS binding, KOR. The class given is biochemical. The note with it: [35S]GTPγS binding, CHO-KOR membranes; mean ± standard error. The procedure, abridged:
as §2
As to `CCCCCCc1ccc2c(c1)[C@H](NC(=O)[C@@H](N)Cc1c(C)cc(O)cc1C)CCN2` [Compound 1011], the EC50 worked out at 773 ± 26.5 nM.

`CC(=O)N1CC[C@@H](NC(=O)[C@@H](N)Cc2c(C)cc(O)cc2C)c2cc(-c3ccccc3)ccc21` [Compound 1067] came in with an EC50 of 291 ± 32.5 nM.

In turn, `Cc1cc(O)cc(C)c1C[C@H](N)C(=O)N(C)[C@H]1CCNc2ccc(Cc3ccccc3)cc21` [Compound 1002] gave an EC50 of 7.2 ± 0.4 nM.

The same assay, now with this note: [35S]GTPγS maximal stimulation compared with 10 μM standard U-69,593.
On to `CCCCCCc1ccc2c(c1)[C@H](NC(=O)[C@@H](N)Cc1c(C)cc(O)cc1C)CCN2` [Compound 1011], for which the Emax was 34.6 ± 1.11%.

As for `CC(=O)N1CC[C@@H](NC(=O)[C@@H](N)Cc2c(C)cc(O)cc2C)c2cc(-c3ccccc3)ccc21` [Compound 1067], the Emax worked out at 69.1 ± 5.04%.

As for `Cc1cc(O)cc(C)c1C[C@H](N)C(=O)N[C@@H]1CCCc2ccccc21` [Compound 1113], the Emax was -1.05%.

Take `Cc1cc(O)cc(C)c1C[C@H](N)C(=O)N(C)[C@H]1CCNc2ccc(Cc3ccccc3)cc21` [Compound 1002]: the Emax is 8.3 ± 2.4%.

Take `CCCCCCc1ccc2c(c1)[C@@H](NC(=O)[C@@H](N)Cc1c(C)cc(O)cc1C)CCN2` [Compound 1012]: the Emax was found to be 0%.
